Measured values published in patent US20240294470A1, “FRAGRANCE COMPOUNDS” (Givaudan SA, priority 2021, published 2024).

Experiments:
[1] = Biodegradability by manometric respirometry test (OECD guideline No. 301F); details: OECD 301F manometric respirometry; oxygen consumption of theory
Source text: The results of the biodegradability assessment by the manometric respirometry test (OECD guideline for the testing of materials No. 301F, Paris 1992) are summarized in Table 2.
A compound can be classified biodegradable, if it reaches the pass level of 60% oxygen consumption of theory required for complete mineralization.
It is readily biodegradable, if the pass level is reached within 10 days within the 28-day period of the test. The 10-day window begins when the degree of biodegradation has reached 10%.
If the pass level is obtained after 28-day period of the test, the compound can be classified as inherently biodegradable.

[2] = Wash test in liquid detergent: odour intensity and quality on line-dried fabric, assessed by expert panel; details: for Fragrance score after 1 day / Fragrance score after 3 days: line-dried cotton/elastane fabric, panel of 4-6 experts, scale 0 (odourless) to 5 (extremely strong); for Odour intensity on dried fabric over time (FIG. 1): 0.2% by weight in liquid detergent, 40° C. wash, fresh dried, after 24 hours and after four days, scale 0 to 5
Description: A Nitrone precursor (Sample A: (E)-2-methyl-N-(4-methylbenzyl)undecan-1-imine oxide, compound of Example 1) has been compared to the aldehyde (Sample B: 2-methyl undecanal) in a wash test. • 1) Sample preparation: 0.2% by weight of the precursor or the aldehyde have been incorporated into unperfumed liquid detergent base by magnetic stirring at room temperature for 24 h., • 2) Wash test: A 40° C. machine wash cycle was performed using 55 g of the liquid detergent sample containing the test material and odour-neutral cotton/elastan mixed fabric T-shirts. […]
Further compounds of formula (I) have been tested in liquid detergent. • 1) Sample preparation: 0.2% wt/wt of the test material was incorporated in unperfumed liquid detergent base by magnetic stirring at room temperature for 24 h. • 2) Wash test: a 40° C. machine wash cycle was performed using 55 g of the liquid detergent sample containing the test material and odour-neutral cotton/elastane mixed fabric T-shirts. The wet fabric is line-dried and odour intensity and quality are assessed by a panel of 4-6 experts after 1 and 3 days on an intensity scale of 0 (odourless) to 5 (extremely strong).

[3] = Application in shampoo: odour intensity and quality on dry hair swatches, assessed by expert panel; details: 0.2% wt/wt in shampoo
Description: • 1) Sample preparation: 0.2% wt/wt of (E)-N-isopropyl-2-methylundecan-1-imine oxide (compound of example 9) was incorporated in unperfumed shampoo base by magnetic stirring at room temperature for 24 h. • 2) Wash test: Hair swatches were wetted with warm tap water, then 2 mL of the above prepared shampoo sample was applied to the hair swatches lathering with gloves delicately for 30 seconds. The hair swatches were rinsed with cold tap water for 20 seconds and excess water was removed by squeezing the hair swatches between two fingers. The hair swatches were left to dry in open air. Their odour intensity and quality was assessed by a panel of 4-6 experts after 1 and 2 days on an intensity scale of 0 (odourless) to 5 (extremely strong). • 3) Results: After 1 day, the fragrance score was 3.2, after 2 days, the fragrance score was 3.3.

[4] = Stability test in liquid detergent base by quantitative HPLC with UV detection; format: physicochemical
Description: Example 61: Stability test in liquid detergentThe stability of (E)-N-isopropyl-2-methylundecan-1-imine oxide (compound of Example 9) in a liquid detergent base was assessed by quantitative HPLC with UV detection.
A liquid detergent sample as prepared above containing the test substance was sampled at TO and after 30 days storage at 37° C. (300 mg diluted with 10 mL acetonitrile/high purity water 1:1), and the concentration of the precursor was assessed by quantitative HPLC-UV using an external calibration curve.

[5] = 0.2% wt/wt in liquid detergent, 40° C. machine wash

SMILES | Biodegradation in % [1] [%] | Fragrance score after 1 day [2, 5] | Fragrance score after 3 days [2, 5] | further results
CCCCCCCCCC(C)/C=[N+](\C)[O-] (stereo not shown) [Example 13, (E)-N,2-dimethylundecan-1-imine oxide] | 89 |  |  | 
CCCCCCCCC/C=C/C=[N+](\[O-])Cc1ccccc1 [Example 49, (1Z,2E)-N-benzyldodec-2-en-1-imine oxide] |  | 2.9 | 3.0 | 
CCCCCCCCCC(C)/C=[N+](/[O-])C(C)C (stereo not shown) [Example 9, (E)-N-isopropyl-2-methylundecan-1-imine oxide] | 70 | 2.4 | 3.2 | Perceived odour on dry hair [3]: clean, aldehydic; Fragrance score after 1 day ([3]; panel of 4-6 experts, scale 0 (odourless) to 5 (extremely strong), after 1 day): 3.2; Fragrance score after 2 days ([3]; panel of 4-6 experts, scale 0 (odourless) to 5 (extremely strong), after 2 days): 3.3; Stability in liquid detergent (judgement) ([4]; 30 days storage at 37° C., alkaline liquid detergent): stable; Concentration of the precursor in liquid detergent, initial ([4]; liquid detergent base, T0, HPLC-UV): 0.21 weight %; Concentration of the precursor in liquid detergent after storage ([4]; liquid detergent base, after 30 days storage at 37° C., HPLC-UV): 0.18 weight %
CCCCCCCCCC(C)/C=[N+](/[O-])C1CCCCC1 (stereo not shown) [Example 6, (E)-N-cyclohexyl-2-methylundecan-1-imine oxide] | 74 |  |  | 
CCCCCCCCCC(C)/C=[N+](/[O-])Cc1ccccc1 (stereo not shown) [Example 5, (E)-N-benzyl-2-methylundecan-1-imine oxide] | 87 |  |  | 
CCCCCCCCCC(C)C=O (stereo not shown) [Sample B, 2-methyl undecanal, reference compound] |  |  |  | Odour intensity on dried fabric over time (FIG. 1) [2]: relatively high on the freshly dried sample and decreases with time
CC1=C(/C=C/C(C)=[N+](/[O-])C(C)C)C(C)(C)CCC1 [Example 10, (2E,3E)-N-isopropyl-4-(2,6,6-trimethylcyclohex-1-en-1-yl)but-3-en-2-imine oxide] |  | 2.3 | 2.2 | Odour on dry fabric ([2]; 0.2% wt/wt in liquid detergent, 40° C. machine wash, line-dried fabric, odour quality by panel): ionone
CCCCCCCCCC(C)/C=[N+](/[O-])Cc1ccc(C)cc1 (stereo not shown) [Example 1, (E)-2-methyl-N-(4-methylbenzyl)undecan-1-imine oxide] | 83 |  |  | Odour intensity on dried fabric over time (FIG. 1) [2]: increases with time and is the highest after four days
CCCCCCCCCC(C)/C=[N+](/[O-])CC(C)CCC (stereo not shown) [Example 15, (E)-2-methyl-N-(2-methylpentyl)undecan-1-imine oxide] | 75 |  |  | 
CCCCCCCCCC(C)/C=[N+](/[O-])Cc1ccc(OC)cc1 (stereo not shown) [Example 58, (E)-N-(4-methoxybenzyl)-2-methylundecan-1-imine oxide] | 76 |  |  | 
